Test results reported in ChEMBL document CHEMBL3813647, “Discovery of an Orally Active and Liver-Targeted Prodrug of 5-Fluoro-2'-Deoxyuridine for the Treatment of Hepatocellular Carcinoma” (J Med Chem, 2016).

What was measured:
Plasma = experiment: Drug uptake in Sprague-Dawley rat plasma treated with (S)-Isopropyl 2-(((R)-(((2R,3S,5R)-5-(5-fluoro-2,4-dioxo-3,4-dihydropyrimidin-1(2H)-yl)-3-hydroxytetrahydrofuran-2-yl)methoxy)((2-methylbenzyl)oxy)phosphoryl)amino)propanoate; type: ADME, cell-free
Liver = experiment: Drug uptake in Sprague-Dawley rat liver treated with (S)-Isopropyl 2-(((R)-(((2R,3S,5R)-5-(5-fluoro-2,4-dioxo-3,4-dihydropyrimidin-1(2H)-yl)-3-hydroxytetrahydrofuran-2-yl)methoxy)((2-methylbenzyl)oxy)phosphoryl)amino)propanoate; type: ADME, tissue-based; details: in vivo

Drug uptake (Plasma): metabolite_detected | Drug uptake (Liver): metabolite_detected
Structure (SMILES): Cc1ccccc1C(=O)NCC(=O)O
